Assay results as given in the supplement of paper PMC10307832.

What was measured:
Assay in all cases: relative viability (nuclei count vs DMSO), 5 days (fraction); higher = more cells survive
[1] = compound: CC1=CC=C(C=C1)C(=O)CN2C3=C(CCCC3)SC2=N [Pifithrin_alpha] + CC(=O)Nc1cccc(-n2c(=O)n(C3CC3)c(=O)c3c(Nc4ccc(I)cc4F)n(C)c(=O)c(C)c32)c1 [Trametinib] (partner 0.02 µM)
In short: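 Lung cancer cell lines in 1536-well plates were dosed by pin tool the day after seeding, either with one drug alone or with a fixed anchor-drug dose plus five library-drug doses (not always all listed) in √10 steps. After 5 days, cells were fixed and their nuclei stained in one step (final 0.05% Triton X-100, 1% formaldehyde, 1 ug/ml Hoechst), then counted on 4× images. Relative viability is the nuclei count in treated wells divided by that in vehicle wells. Values are medians of duplicate plates.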

Pifithrin_alpha = compound: CC1=CC=C(C=C1)C(=O)CN2C3=C(CCCC3)SC2=N [Pifithrin_alpha]
In short: (§1)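 Five library-drug doses spaced by √10 were pinned onto vehicle-anchored 1536-well plates of lung cancer cell lines that had been kept overnight at 37 °C. Cells went 5 days without medium change, then were fixed, permeabilised and Hoechst-stained together, imaged at 4× and counted by MetaXpress. Viability is the ratio of treated-well to vehicle-well nuclei, taken as a median over plates. Plates required control CV below 25% and at least one doubling.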

Bemcentinib = compound: Nc1nc(Nc2ccc3c(c2)CC[C@@H](N2CCCC2)CC3)nn1-c1cc2c(nn1)-c1ccccc1CCC2 [Bemcentinib]
In short: as §1

Axitinib = compound: CNC(=O)c1ccccc1Sc1ccc2c(/C=C/c3ccccn3)n[nH]c2c1 [Axitinib]
In short: as §1

Cell Line	relative viability ([1]; first compound 1 µM)	relative viability ([1]; first compound 3.162 µM)	relative viability ([1]; first compound 10 µM)	relative viability ([1]; first compound 31.62 µM)	relative viability ([1]; first compound 100 µM)	relative viability (Pifithrin_alpha; 1 µM)	relative viability (Pifithrin_alpha; 3.162 µM)	relative viability (Pifithrin_alpha; 10 µM)	relative viability (Pifithrin_alpha; 31.62 µM)	relative viability (Pifithrin_alpha; 100 µM)	relative viability (Bemcentinib; 0.04 µM)	relative viability (Bemcentinib; 0.1265 µM)	relative viability (Bemcentinib; 0.4 µM)	relative viability (Bemcentinib; 1.265 µM)	relative viability (Bemcentinib; 4 µM)	relative viability (Axitinib; 0.005 µM)	relative viability (Axitinib; 0.01581 µM)	relative viability (Axitinib; 0.05 µM)	relative viability (Axitinib; 0.1581 µM)	relative viability (Axitinib; 0.5 µM)
NCI-H1734	0.716	0.769	0.648	0.623	0.666	0.885	0.99	0.915	0.751	0.937	0.91	1.01	0.982	0.996	1.08	0.998	0.951	1.03	0.9	1.03
NCI-H1648	0.487	0.332	0.453	0.48	0.422	0.791	0.852	0.869	0.625	0.691	0.85	1.06	1.07	0.724	0.694	1.03	0.984	0.61	0.882	0.632
NCI-H2087	0.178	0.196	0.169	0.183	0.165	0.932	1.13	1.02	0.63	0.958	1.12	1.2	1.07	0.969	1.03	0.939	1.09	0.996	1.02	0.986
EKVX	0.394	0.532	0.269	0.28	0.21	0.984	0.861	0.858	0.738	0.695	0.793	1.09	1.02	1.03	1.03	1.01	0.963	0.917	0.88	0.99
NCI-H1915	0.291	0.296	0.302		0.308	0.887	1.03	0.737		1.08	1.01	1.1	1.05	0.947	0.958	1	1.07	0.982	0.99	0.999
NCI-H3122	0.254	0.296	0.25	0.213	0.286	0.982	0.999	0.965	0.745	1.02		1.06	0.977	1.06	1.06	0.973	0.985	1.02	1.02	1.11
BEN	1.13	0.993	1.12	1.14	1.29	0.854	1.02	1.14	0.93	1.08	0.833	1.13	1.08	0.919	0.894	0.958	1.01	0.902	0.868	0.741
201T	0.752	0.616	0.61	0.529	0.518	0.992	0.781	0.679	0.646	0.724	0.943	0.982	1.05	0.947	1.01	0.994	0.936	0.953	0.964	0.955
NCI-H1792	0.498	0.389	0.432		0.316	0.725	0.938	0.731	0.621	0.886	0.877	1.12	1.08	0.841	0.85	0.965	0.814	0.855	0.935	0.7
NCI-H1666	0.8	0.737	0.791	0.706	0.494	1.01	0.909	0.837	0.795	0.776	0.902	1.34	1.03	1.06	0.998	1.06	0.965	0.965	1	0.977
NCI-H1993	0.485	0.418	0.508	0.397	0.4	0.693	0.764	0.743	0.658	0.775	0.911	0.927	1.22	0.921	0.994	1.05	0.892	0.909	0.94	0.864
CAL-12T	0.295	0.331	0.274		0.268	0.778	1	0.937	0.711	0.765	0.989	1.02	1.06	1.02	1.01	1.03	1	0.983	0.94	0.977
NCI-H460	0.0943	0.075	0.155	0.0707	0.103	1.06	0.949	0.872	0.592	0.837	0.973	1.1	1.06	1.07	1.01	0.976	0.981	1.05	1.01	1.1
NCI-H2170	0.994	0.987	0.836	0.794	0.903	0.989	1.04	0.875	0.948	0.962	1.09	1.09	0.991	0.999	0.899	1.1	0.975	1.01	0.974	1
LC-2-ad	0.973	0.945	0.912	0.757	0.811	0.702	1	0.96	0.697	0.832	0.903	0.988	0.99	0.971	0.972	1	0.963	1.03	0.956	1.02
HCC-78		0.774	0.71	0.541	0.598	0.669	0.892	0.815	0.694	0.823	0.752	0.926	1.07	0.791	0.957	0.978	1.02	0.893	0.936	0.867
